For experiment [1], the target named is T1, norepinephrine (NE) transport (Rattus norvegicus, UniProt Q63380).
T1 construct: synaptosomal preparations were made from either whole brain (5-HT), striatum (DA) or hypothalamus (NE); from tissue; host or cells: rat hypothalamus synaptosomes
The experiment in a line: Inhibition of [3H]NE uptake in rat hypothalamus synaptosomes. It counts as biochemical. The procedure:
(§1) The effects of arylbicyclo[3.1.0]hexylamines of the invention for inhibiting transport of norepinephrine (NE) and/or dopamine (DA) and/or serotonin (5-HT) were evaluated using preparations of synaptosomes from different regions of the rat brain according to previously-reported techniques.
(§2) Whole brains were obtained from normal rats, and synaptosomal preparations were made from either whole brain (5-HT), striatum (DA) or hypothalamus (NE) by gentle disruption in 10 volumes (w/v) of 0.32 M sucrose (0-4° C.) using a Teflon-glass homogenizer. The homogenate was then centrifuged at 1000×g for 10 min. The supernatant was retained and centrifuged at 23000 g for 20 min. The resulting pellet was gently resuspended in 200 volumes of 0.32 M sucrose (0-4° C.) using a teflon-glass homogenizer. Aliquots (250 μL) of this preparation were added to tubes, along with 0.2 μCi/mL of [^3H]5-HT, [^3H]DA, or [^3H]NE, 200 μL of selected 1-arylbicyclo[3.1.0]hexanamine test compounds (to yield final concentrations of 500 nM) and 1 mL of Krebs-Ringer bicarbonate buffer (pH 7.4). […] At the end of this period, the assay was terminated by rapid filtration over Whatman GF/C glass fiber filters. The filters were rinsed 3 times with 4 ml of Krebs-Ringer bicarbonate buffer (0-4° C.), and the radioactivity retained on the filters was measured by liquid scintillation spectrometry.

Experiment [2] concerns the target T2, serotonin (5-HT) transport (Rattus norvegicus, UniProt P31652).
T2 construct: synaptosomal preparations were made from either whole brain (5-HT), striatum (DA) or hypothalamus (NE); from tissue; host or cells: rat whole brain synaptosomes
The experiment in a line: biochemical. How it is done: as §1, §2

Experiment [3] deals with T3, dopamine (DA) transport (Rattus norvegicus, UniProt P23977).
T3 construct: synaptosomal preparations were made from either whole brain (5-HT), striatum (DA) or hypothalamus (NE); from tissue; host or cells: rat striatum synaptosomes
T3 sequence (P23977 whole entry): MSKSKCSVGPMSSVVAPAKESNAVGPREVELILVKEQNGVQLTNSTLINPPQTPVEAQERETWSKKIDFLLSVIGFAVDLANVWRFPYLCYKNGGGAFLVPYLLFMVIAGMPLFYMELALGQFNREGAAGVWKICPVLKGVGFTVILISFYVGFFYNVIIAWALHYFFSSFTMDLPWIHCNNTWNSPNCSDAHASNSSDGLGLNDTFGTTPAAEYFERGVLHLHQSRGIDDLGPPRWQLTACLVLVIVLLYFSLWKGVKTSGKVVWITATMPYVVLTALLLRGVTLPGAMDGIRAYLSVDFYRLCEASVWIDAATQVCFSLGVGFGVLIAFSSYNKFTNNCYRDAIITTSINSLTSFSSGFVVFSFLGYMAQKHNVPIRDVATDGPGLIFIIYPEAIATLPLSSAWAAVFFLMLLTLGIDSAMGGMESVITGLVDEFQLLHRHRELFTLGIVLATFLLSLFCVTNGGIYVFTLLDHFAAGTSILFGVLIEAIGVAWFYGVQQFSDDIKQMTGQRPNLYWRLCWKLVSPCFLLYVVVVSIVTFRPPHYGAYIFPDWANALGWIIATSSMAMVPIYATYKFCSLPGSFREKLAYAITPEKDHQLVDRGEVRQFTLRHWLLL
The experiment in a line: biochemical. How it is done:
as §1, §2

pIC50: −log10 of the molar value.

T1 sequence (Q63380 1-617): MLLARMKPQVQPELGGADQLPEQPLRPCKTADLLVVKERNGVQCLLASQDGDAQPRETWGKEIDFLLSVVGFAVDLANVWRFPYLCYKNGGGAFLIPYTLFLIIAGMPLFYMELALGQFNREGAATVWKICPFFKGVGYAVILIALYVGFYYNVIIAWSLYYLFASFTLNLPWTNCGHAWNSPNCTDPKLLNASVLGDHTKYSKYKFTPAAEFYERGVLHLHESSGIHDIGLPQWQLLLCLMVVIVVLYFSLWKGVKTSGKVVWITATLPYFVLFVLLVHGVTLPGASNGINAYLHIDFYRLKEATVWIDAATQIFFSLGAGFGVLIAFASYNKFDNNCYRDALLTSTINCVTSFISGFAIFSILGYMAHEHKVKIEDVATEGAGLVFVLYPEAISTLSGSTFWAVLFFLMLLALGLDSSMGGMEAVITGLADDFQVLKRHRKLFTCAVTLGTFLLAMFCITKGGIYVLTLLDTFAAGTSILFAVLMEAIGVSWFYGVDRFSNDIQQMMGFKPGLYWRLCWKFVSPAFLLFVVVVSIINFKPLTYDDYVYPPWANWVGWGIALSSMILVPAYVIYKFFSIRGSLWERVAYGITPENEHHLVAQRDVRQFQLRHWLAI
T2 sequence (P31652 whole entry): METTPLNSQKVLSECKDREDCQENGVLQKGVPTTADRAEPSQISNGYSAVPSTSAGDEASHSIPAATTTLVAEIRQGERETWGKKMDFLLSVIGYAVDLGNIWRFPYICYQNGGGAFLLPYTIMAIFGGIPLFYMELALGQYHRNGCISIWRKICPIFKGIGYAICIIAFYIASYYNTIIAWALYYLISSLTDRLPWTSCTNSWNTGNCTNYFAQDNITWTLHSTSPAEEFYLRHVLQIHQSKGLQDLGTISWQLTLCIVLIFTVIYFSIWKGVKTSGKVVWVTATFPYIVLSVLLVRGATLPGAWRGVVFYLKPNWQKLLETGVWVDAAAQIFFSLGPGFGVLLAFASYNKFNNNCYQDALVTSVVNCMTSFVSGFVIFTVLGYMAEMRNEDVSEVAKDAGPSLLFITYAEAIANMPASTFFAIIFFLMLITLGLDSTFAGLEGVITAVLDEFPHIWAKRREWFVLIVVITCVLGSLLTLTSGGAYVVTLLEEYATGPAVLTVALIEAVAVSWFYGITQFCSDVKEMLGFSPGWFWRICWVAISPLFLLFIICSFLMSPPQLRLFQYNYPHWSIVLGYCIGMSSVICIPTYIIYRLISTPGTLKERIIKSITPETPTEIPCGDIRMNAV

As for `CNC1CC2CC2(c2cccc3ccccc23)C1` (stereo not drawn), the half-maximal inhibitory concentration (IC50) in experiment [1] came out at 74 nM. The inhibition at 0.5 µM came out at 81% in experiment [1] (500 nM, 20 min, 37° C.); 82% in experiment [2] (read-out: Uptake Inhibition % at 500 nM 5-HT); 23% in experiment [3] (read-out: Uptake Inhibition % at 500 nM DA). The pIC50 was 7.12 in experiment [2] and 5.06 in experiment [3].

For orientation: IC50 means the point on the concentration scale where inhibition reaches its midpoint. Lower therefore signals greater potency. Broadly, the inhibition is the share of the control response that was lost under treatment. What is called pIC50 is the negative decadic logarithm of the IC50, by convention in mol/L. Read a low pIC50 as a high IC50.

(Values after US8138377B2, “Arylbicyclo[3.1.0]hexylamines and methods and compositions for their preparation and use” (DOV Pharmaceutical, Inc., priority 2007, dated 2012).)
